Results: patent publication US12723063B2, “GIPR-agonist compounds” (Eli Lilly and Company, priority 2019, dated 2026)
*1 amine or outer side, *2 acyl side, *3 side chain or, on linkers, in order; H or OH if unused. Where a SMILES comes first, the peptide text is derived from it. Side-chain parts run from the residue outwards. [ ]: non-standard residue; d: D form. The star is where a group is joined. C20 diacid = O=C(O)CCCCCCCCCCCCCCCCCCC(=O)*; αMePhe(2-F) = C[C@](N)(Cc1ccccc1F)C(=O)O; γGlu = O=C(O)[C@H](CCC(=O)[*:2])N[*:1]; 4Pal = N[C@@H](Cc1ccncc1)C(=O)O; αMeL = CC(C)C[C@](C)(N)C(=O)O; AEEA = NCCOCCOCC(=O)O; Aib = CC(C)(N)C(=O)O

Key:
human GcgR = biological target: T1, human GcgR (Homo sapiens, UniProt P47871); test: [125I]-Glucagon binding, SPA with WGA beads, 0.1% bacitracin; conditions: geometric mean, read-out: hGcgR Ki
T1 construct: expressed in transfected cells; crude membranes
T1 sequence (P47871 26-477): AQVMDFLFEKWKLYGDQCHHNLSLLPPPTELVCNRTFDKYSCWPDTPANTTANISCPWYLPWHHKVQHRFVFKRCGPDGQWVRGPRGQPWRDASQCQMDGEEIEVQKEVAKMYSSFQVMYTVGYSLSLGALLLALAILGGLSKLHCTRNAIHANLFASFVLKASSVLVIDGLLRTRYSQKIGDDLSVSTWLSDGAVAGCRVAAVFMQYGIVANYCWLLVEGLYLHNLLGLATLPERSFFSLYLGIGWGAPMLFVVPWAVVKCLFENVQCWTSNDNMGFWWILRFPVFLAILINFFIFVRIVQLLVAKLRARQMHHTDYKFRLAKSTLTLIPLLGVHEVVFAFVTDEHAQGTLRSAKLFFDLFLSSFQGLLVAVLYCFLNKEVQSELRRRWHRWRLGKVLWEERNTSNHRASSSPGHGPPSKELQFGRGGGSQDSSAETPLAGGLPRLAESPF
In short: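 SPA competition binding with WGA beads on crude membranes from HEK293 cells stably expressing hGcgR. Buffer: 25 mM HEPES pH 7.4, 2.5 mM CaCl2, 1 mM MgCl2, 0.1% bacitracin, 0.003% Tween-20; 10-point 3-fold dilutions, NSB with 1 μM Gcg.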

[1] = biological target: T2, human GLP-1 receptor (GLP-1R) (Homo sapiens, UniProt P43220); test: cAMP functional assay (HTRF) in HEK293 cells in presence of 0.1% casein; format: cell-based; conditions: HEK293 cells expressing human GLP-1R, geometric mean, read-out: hGLP1R cAMP Rel EC50 nM (SEM, n)
T2 construct: expressed in transfected cells; host or cells: HEK293
T2 sequence (P43220 24-463): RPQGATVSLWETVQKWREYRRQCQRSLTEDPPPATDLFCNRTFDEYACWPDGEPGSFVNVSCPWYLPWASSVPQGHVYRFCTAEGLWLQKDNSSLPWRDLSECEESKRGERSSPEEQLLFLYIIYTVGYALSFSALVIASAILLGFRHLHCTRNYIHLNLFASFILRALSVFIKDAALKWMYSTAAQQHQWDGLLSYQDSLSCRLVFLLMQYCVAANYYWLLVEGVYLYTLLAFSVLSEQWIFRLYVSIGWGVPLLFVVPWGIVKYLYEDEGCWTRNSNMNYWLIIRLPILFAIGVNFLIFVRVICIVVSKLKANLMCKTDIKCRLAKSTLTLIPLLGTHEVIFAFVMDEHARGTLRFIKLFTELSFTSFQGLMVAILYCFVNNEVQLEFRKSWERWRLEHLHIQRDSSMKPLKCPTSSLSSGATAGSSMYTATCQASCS

[2] = biological target: T3, human glucagon receptor (GcgR) (Homo sapiens, UniProt P47871); test: as above; format: cell-based; conditions: HEK293 cells expressing human GcgR, geometric mean, read-out: hGcgR cAMP Rel EC50 nM (SEM, n)
T3 construct: expressed in transfected cells; host or cells: HEK293
T3 sequence (P47871 26-477): as the sequence (P47871 26-477) above

| Structure (SMILES) | Ki (human GcgR) | EC50 [1] | EC50 [2] |
| --- | --- | --- | --- |
| CC[C@H](C)[C@H](NC(=O)[C@H](CO)NC(=O)[C@H](Cc1ccc(O)cc1)NC(=O)[C@H](CC(=O)O)NC(=O)[C@H](CO)NC(=O)[C@@H](NC(=O)[C@H](Cc1ccccc1)NC(=O)[C@@H](NC(=O)CNC(=O)[C@H](CCC(=O)O)NC(=O)C(C)(C)NC(=O)[C@@H](N)Cc1ccc(O)cc1)[C@@H](C)O)[C@@H](C)CC)C(=O)N[C@@H](CC(C)C)C(=O)N[C@@H](CC(C)C)C(=O)N[C@@H](CC(=O)O)C(=O)N[C@@H](CCCCN)C(=O)N[C@@H](CCCCNC(=O)COCCOCCNC(=O)COCCOCCNC(=O)CC[C@H](NC(=O)CCCCCCCCCCCCCCCCC(=O)O)C(=O)O)C(=O)N[C@@H](Cc1c[nH]cn1)C(=O)N[C@@H](CCC(N)=O)C(=O)NC(C)(C)C(=O)N[C@@H](CC(=O)O)C(=O)N[C@@H](Cc1ccccc1)C(=O)N[C@H](C(=O)N[C@@H](CCC(=O)O)C(=O)N[C@@H](Cc1ccncc1)C(=O)N[C@@H](CC(C)C)C(=O)N[C@@H](CC(C)C)C(=O)N[C@@H](C)C(=O)NCC(=O)NCC(=O)N1CCC[C@H]1C(=O)N[C@@H](CO)C(=O)N[C@@H](CO)C(=O)NCC(=O)N[C@@H](C)C(=O)N1CCC[C@H]1C(=O)N1CCC[C@H]1C(=O)N1CCC[C@H]1C(=O)N[C@@H](CO)C(N)=O)C(C)C [Example 22] | > 1380 nM | > 5000 nM | 1250 nM |
| CC[C@H](C)[C@H](NC(=O)[C@H](CO)NC(=O)[C@H](Cc1ccc(O)cc1)NC(=O)[C@H](CC(=O)O)NC(=O)[C@H](CO)NC(=O)[C@@H](NC(=O)[C@](C)(Cc1ccccc1F)NC(=O)[C@@H](NC(=O)CNC(=O)[C@H](CCC(=O)O)NC(=O)C(C)(C)NC(=O)[C@@H](N)Cc1ccc(O)cc1)[C@@H](C)O)[C@@H](C)CC)C(=O)N[C@@H](CC(C)C)C(=O)N[C@@H](CC(C)C)C(=O)N[C@@H](CC(=O)O)C(=O)N[C@@H](CCCCN)C(=O)N[C@H](C(=O)N[C@@H](Cc1c[nH]cn1)C(=O)N[C@@H](CCC(N)=O)C(=O)NC(C)(C)C(=O)N[C@@H](CC(=O)O)C(=O)N[C@@H](Cc1ccccc1)C(=O)N[C@H](C(=O)N[C@@H](CCC(=O)O)C(=O)N[C@@H](Cc1ccncc1)C(=O)N[C@@H](CCCCNC(=O)COCCOCCNC(=O)COCCOCCNC(=O)CC[C@H](NC(=O)CCCCCCCCCCCCCCCCCCC(=O)O)C(=O)O)C(=O)N[C@@H](CC(C)C)C(=O)N[C@@H](CCC(=O)O)C(=O)NCC(=O)NCC(=O)N1CCC[C@H]1C(=O)N[C@@H](CO)C(=O)N[C@@H](CO)C(=O)NCC(=O)N[C@@H](C)C(=O)N1CCC[C@H]1C(=O)N1CCC[C@H]1C(=O)N1CCC[C@H]1C(=O)N[C@@H](CO)C(N)=O)C(C)C)[C@@H](C)CC [Example 119] (H-Y[Aib]EGT[αMePhe(2-F)]ISDYSILLDKIHQ[Aib]DFVE[4Pal]K([AEEA-AEEA-γGlu-C20 diacid])LEGGPSSGAPPPS-NH2) | 68.8 nM | > 5000 nM | > 5000 nM |
| CC[C@H](C)[C@H](NC(=O)[C@H](CO)NC(=O)[C@H](Cc1ccc(O)cc1)NC(=O)[C@H](CC(=O)O)NC(=O)[C@H](CO)NC(=O)[C@@H](NC(=O)[C@](C)(Cc1ccccc1F)NC(=O)[C@@H](NC(=O)CNC(=O)[C@H](CCC(=O)O)NC(=O)C(C)(C)NC(=O)[C@@H](N)Cc1ccc(O)cc1)[C@@H](C)O)[C@@H](C)CC)C(=O)N[C@@H](CC(C)C)C(=O)N[C@@H](CC(C)C)C(=O)N[C@@H](CC(=O)O)C(=O)N[C@@H](CCCCN)C(=O)N[C@H](C(=O)N[C@@H](Cc1c[nH]cn1)C(=O)N[C@@H](CCC(N)=O)C(=O)NC(C)(C)C(=O)N[C@@H](CC(=O)O)C(=O)N[C@@H](Cc1ccccc1)C(=O)N[C@H](C(=O)N[C@@H](CCC(=O)O)C(=O)N[C@@H](Cc1ccncc1)C(=O)N[C@@H](CCCCNC(=O)COCCOCCNC(=O)COCCOCCNC(=O)CC[C@H](NC(=O)CCCCCCCCCCCCCCCCCCC(=O)O)C(=O)O)C(=O)N[C@@H](CC(C)C)C(=O)N[C@@H](CCC(=O)O)C(=O)N[C@@H](C)C(=O)NCC(=O)N1CCC[C@H]1C(=O)N[C@@H](CO)C(=O)N[C@@H](CO)C(=O)NCC(=O)N[C@@H](C)C(=O)N1CCC[C@H]1C(=O)N1CCC[C@H]1C(=O)N1CCC[C@H]1C(=O)N[C@@H](CO)C(N)=O)C(C)C)[C@@H](C)CC [Example 120] (H-Y[Aib]EGT[αMePhe(2-F)]ISDYSILLDKIHQ[Aib]DFVE[4Pal]K([AEEA-AEEA-γGlu-C20 diacid])LEAGPSSGAPPPS-NH2) | 575 nM | > 5000 nM | > 5000 nM |
| CC[C@H](C)[C@H](NC(=O)[C@H](CO)NC(=O)[C@H](Cc1ccc(O)cc1)NC(=O)[C@H](CC(=O)O)NC(=O)[C@H](CO)NC(=O)[C@@H](NC(=O)[C@H](Cc1ccccc1)NC(=O)[C@@H](NC(=O)CNC(=O)[C@H](CCC(=O)O)NC(=O)[C@@H](C)NC(=O)[C@@H](N)Cc1ccc(O)cc1)[C@@H](C)O)[C@@H](C)CC)C(=O)N[C@@H](CC(C)C)C(=O)N[C@@H](CC(C)C)C(=O)N[C@@H](CC(=O)O)C(=O)N[C@@H](CCCCN)C(=O)N[C@@H](CCCCNC(=O)COCCOCCNC(=O)COCCOCCNC(=O)CC[C@H](NC(=O)CCCCCCCCCCCCCCCCCCC(=O)O)C(=O)O)C(=O)N[C@@H](Cc1c[nH]cn1)C(=O)N[C@@H](CCC(N)=O)C(=O)N[C@@H](CCC(N)=O)C(=O)N[C@@H](CC(=O)O)C(=O)N[C@@H](Cc1ccccc1)C(=O)N[C@H](C(=O)N[C@@H](CC(N)=O)C(=O)N[C@@H](Cc1c[nH]c2ccccc12)C(=O)N[C@@H](CC(C)C)C(=O)N[C@@H](CC(C)C)C(=O)N[C@@H](C)C(=O)NCC(=O)NCC(=O)N1CCC[C@H]1C(=O)N[C@@H](CO)C(=O)N[C@@H](CO)C(=O)NCC(=O)N[C@@H](C)C(=O)N1CCC[C@H]1C(=O)N1CCC[C@H]1C(=O)N1CCC[C@H]1C(=O)N[C@@H](CO)C(N)=O)C(C)C [Example 10] (H-Y[dA]EGTFISDYSILLDKK([AEEA-AEEA-γGlu-C20 diacid])HQQDFVNWLLAGGPSSGAPPPS-NH2) | > 230 nM | > 100 nM | > 5000 nM |
| CC[C@H](C)[C@H](NC(=O)[C@H](CC(C)C)NC(=O)[C@@H](NC(=O)CNC(=O)[C@H](CCC(=O)O)NC(=O)C(C)(C)NC(=O)[C@@H](N)Cc1ccc(O)cc1)[C@@H](C)O)C(=O)N[C@@H](CO)C(=O)N[C@@H](CC(=O)O)C(=O)N[C@@H](Cc1ccc(O)cc1)C(=O)N[C@@H](CO)C(=O)N[C@H](C(=O)N[C@@](C)(CC(C)C)C(=O)N[C@@H](CC(C)C)C(=O)N[C@@H](CC(=O)O)C(=O)N[C@@H](CCCCN)C(=O)N[C@@H](CCCCNC(=O)COCCOCCNC(=O)COCCOCCNC(=O)CC[C@H](NC(=O)CCCCCCCCCCCCCCCCCCC(=O)O)C(=O)O)C(=O)N[C@@H](Cc1c[nH]cn1)C(=O)N[C@@H](CCC(N)=O)C(=O)NC(C)(C)C(=O)N[C@@H](CC(=O)O)C(=O)N[C@@H](Cc1ccccc1)C(=O)N[C@H](C(=O)N[C@@H](CCC(=O)O)C(=O)N[C@@H](Cc1ccncc1)C(=O)N[C@@H](CC(C)C)C(=O)N[C@@H](CC(C)C)C(=O)N[C@@H](CCC(=O)O)C(=O)N[C@@H](C)C(=O)NCC(=O)N1CCC[C@H]1C(=O)N[C@@H](CO)C(=O)N[C@@H](CO)C(=O)NCC(=O)N[C@@H](C)C(=O)N1CCC[C@H]1C(=O)N1CCC[C@H]1C(=O)N1CCC[C@H]1C(=O)N[C@@H](CO)C(N)=O)C(C)C)[C@@H](C)CC [Example 89] (H-Y[Aib]EGTLISDYSI[αMeL]LDKK([AEEA-AEEA-γGlu-C20 diacid])HQ[Aib]DFVE[4Pal]LLEAGPSSGAPPPS-NH2) | 611 nM | > 5000 nM | > 5000 nM |
| CC[C@H](C)[C@H](NC(=O)[C@H](CO)NC(=O)[C@H](Cc1ccc(O)cc1)NC(=O)[C@H](CC(=O)O)NC(=O)[C@H](CO)NC(=O)[C@@H](NC(=O)[C@](C)(Cc1ccccc1F)NC(=O)[C@@H](NC(=O)CNC(=O)[C@H](CCC(=O)O)NC(=O)C(C)(C)NC(=O)[C@@H](N)Cc1ccc(O)cc1)[C@@H](C)O)[C@@H](C)CC)C(=O)N[C@@H](C)C(=O)N[C@@H](CC(C)C)C(=O)N[C@@H](CC(=O)O)C(=O)N[C@@H](CCCCN)C(=O)N[C@H](C(=O)N[C@@H](Cc1c[nH]cn1)C(=O)N[C@@H](CCC(N)=O)C(=O)NC(C)(C)C(=O)N[C@@H](CC(=O)O)C(=O)N[C@@H](Cc1ccccc1)C(=O)N[C@H](C(=O)N[C@@H](CCC(=O)O)C(=O)N[C@@H](Cc1ccncc1)C(=O)N[C@@H](CCCCNC(=O)COCCOCCNC(=O)COCCOCCNC(=O)CC[C@H](NC(=O)CCCCCCCCCCCCCCCCCCC(=O)O)C(=O)O)C(=O)N[C@@H](CC(C)C)C(=O)N[C@@H](CCC(=O)O)C(=O)N[C@@H](CCC(N)=O)C(=O)NCC(=O)N1CCC[C@H]1C(=O)N[C@@H](CO)C(=O)N[C@@H](CO)C(=O)NCC(=O)N[C@@H](C)C(=O)N1CCC[C@H]1C(=O)N1CCC[C@H]1C(=O)N1CCC[C@H]1C(=O)N[C@@H](CO)C(N)=O)C(C)C)[C@@H](C)CC [Example 114] (H-Y[Aib]EGT[αMePhe(2-F)]ISDYSIALDKIHQ[Aib]DFVE[4Pal]K([AEEA-AEEA-γGlu-C20 diacid])LEQGPSSGAPPPS-NH2) | > 971 nM | > 5000 nM | > 5000 nM |
